Tests used:
[1] = test system: HMG-CoA synthase mRNA; conditions: previously shown (ref. 10); cited from earlier work
[2] = test system: SRE-mediated gene transcription; experiment: SRE-mediated gene transcription, Part II inhibitors of sphingolipid synthesis and DAG generation; format: cell-based; design: SRE-mediated gene transcription inhibited to: unit of the concentration uncertain
Method: Reduction of de novo sphingolipid synthesis: Incubation with methylthiodihydroceramide (10 μM) for 6 h reduces SRE-mediated gene transcription to 40%. Methylthiodihydroceramide was received from Gerhild van Echten-Deckert (1). Reduction of de novo sphingolipid biosynthesis by 1-methylthiodihydroceramide is due to its ability to deplete cells of newly formed free sphinganine.
Inhibition of sphingomyelin synthesis: The D609 compound is a xanthate and inhibitor of sphingomyelin synthase. It is a mixture of several isoforms (2). Experiments were carried out with five defined isomers of D609 received via Gemma Fabrias (Dept. of Biological Organic Chemistry, Barcelona, Spain) (Table 1). […] A concentration curve of 10, 20 and 40 μg/ml was tested over 5 h.
Data: Propanolol ([…]) inhibits SRE-mediated gene transcription to 40% (+3%) within 30 min. Resvaratrol ([…]) inhibits SRE-mediated gene transcription to 7% (±16%) within 4 h.

[3] = test system: SRE-mediated gene transcription; experiment: SRE-promoter luciferase reporter gene assay in stably transfected CHO cells; format: cell-based, Chinese hamster; conditions: for SRE-mediated gene transcription (luciferase RLU/protein): myriocin 1 μM, cycloserine 500 mM, fumonisin B1 10 μM, PPMP 20 μM, NB-DNJ 40 μM, cholesterol/25-OH cholesterol 10/1 μg/ml, vs 1% BSA
Method: FIG. 3. Inhibition of ceramide synthesis and SRE-mediated gene transcription. (A) Decreased ceramide synthesis correlates with decreased levels of SRE-mediated gene transcription and mSREBP. […] After cell lysis, luciferase activity was analyzed, and expressed as a ratio of protein content. Data represent the average (±S.D.) of at least 4 different experiments, each performed in triplicate. […] CHO cells stably transfected with an SRE-promoter construct linked to the luciferase reporter gene were incubated for 8 h in the presence of control conditions (1% BSA) or increasing levels of myriocin (0.25-1 μM). After cell lysis, luciferase activity was analyzed, expressed as a ratio of protein content. Data represent the average (±S.D.) of at least 3 different experiments, each performed in triplicate.
FIG. 4. Increased ceramide synthesis and SRE-mediated gene transcription. (A) Increased ceramide de novo synthesis correlates with increased SRE-mediated gene transcription. On day 1, CHO cells stably transfected with an SRE-promoter construct linked to the luciferase reporter gene were plated at 80% confluency. […] Cells were harvested, lysed and analyzed for luciferase activity (measured in relative light units, RLU) and protein content. Data are expressed as percentage of control and represent the average (±S.D.) of three different experiments, each performed in triplicate. Inset: Western blot analysis: On day 1, CHO cells were plated in regular growth medium. On day 2, cells were incubated for 8 h with control medium (1% BSA) or DMS (5 μM). Whole cell extracts (30 μg protein) were loaded on a 4-14% continuous gradient SDS-PAGE gel. P and M denote the precursor (125 kd) and mature (68 kd) form of SREBP-1 in a representative experiment. (B) DMS increases ceramide de novo synthesis. CHO cells were treated for 3.5 h either with control conditions (1% BSA) or DMS (2.5-5 μM). […] Data are expressed as dpm/protein and represent a typical experiment.
(§1) FIG. 5. LY-B cells fail to recover SRE-mediated gene transcription in cholesterol depletion but recover SRE-mediated gene transcription in the presence of DMS. […] Both cell lines have been transfected to stably express an SRE-promoter construct linked to the luciferase reporter gene. On day 2, cells were incubated for 16 h with 1% BSA (control) or in the presence of cholesterol (10 μg/ml) and 25-OH cholesterol (1 μg/ml) to decrease SRE-mediated gene transcription. Then, incubation medium was switched to 1% BSA or DMS (5 μM) for 6 h. After cell lysis, luciferase activity was analyzed, expressed as a ratio of protein content. Data represent the average (±S.D.) of at least 4 different experiments, each performed in triplicate.
Cell culture and stable transfections: Cells were grown in F12-nutrient mixture medium containing 10% fetal bovine serum (FBS), 1% glutamine (v/v), 1% penicillin/streptomycin (v/v), and 10% fetal bovine serum (v/v) at 37° C. in humidified CO2 (5%). To obtain stable transfectants, cells were plated in 12-well plates at 50% confluency and transfected for 5 h in the presence of serum-free Dulbecco's modified Eagle's medium (DMEM) with pSyn SRE (1 μg/well) and pWLNeo (0.25 μg/well) using Lipofectamin (1.5 μl/well). Cells were then incubated for 2 days in growth medium. On day three, neomycin-containing medium (400 μg/ml) was added. Selection for neomycin resistant colonies was continued for three weeks. Pooled clones were analyzed for luciferase expression. Experiments were performed with pooled clones as well as with cells derived from a single clone. Cells were grown in the presence of 400 μg/ml neomycin. For experimental use, cells were plated in the absence of neomycin at least 24 h ahead in regular growth medium.
Enzyme assays: Cells to be analyzed for luciferase activity were lyzed in lysis buffer A containing 0.1% Triton X-100, 50 mM Hepes, 10 mM MgSO4, pH 7.7. Cells were scraped, collected, vortexed and briefly centrifuged to pellet cell debris. […]

[4] = test system: SREBP-1; experiment: Western blot analysis of precursor and mature SREBP-1 in CHO cells; format: cell-based, Chinese hamster; conditions: C6-ceramide 20 μM, 4 h and 8 h, vs controls
Method: FIG. 2. C6-ceramide increases pSREBP levels. On day 1, CHO cells were plated in regular growth medium. On day 2, cells were incubated for 4 and 8 h with 1% BSA (control) or in the presence of C6-ceramide (20 μM). Whole cell extracts (30 μg protein) were loaded on a 4-14% continuous gradient SDS-PAGE gel. P denotes the precursor (125 kd) form of SREBP-1 in a representative experiment. C6 ceramide increases the precursor form of SREBP-1 and decreases the mature form of SREBP-1. […] The blot is representative of experiments carried out with ceramide analogues of different chain length. Densitometric results were obtained by analyzing pixels/inch (corrected for actin) and expressed relative to control.
FIG. 4. Increased ceramide synthesis and SRE-mediated gene transcription. (A) Increased ceramide de novo synthesis correlates with increased SRE-mediated gene transcription. […] Cells were harvested, lysed and analyzed for luciferase activity (measured in relative light units, RLU) and protein content. Data are expressed as percentage of control and represent the average (±S.D.) of three different experiments, each performed in triplicate. […] Data are expressed as dpm/protein and represent a typical experiment.
Western blot analysis: Cells were plated on day one in regular growth medium. […] Densitometric quantification was carried out using Scion Image beta 4.02 software (www.scioncorp.com). […]

[5] = test system: HSN1 cells (4561); experiment: Cholesterol / cholesterylester synthesis from 3H-mevalonate in HSN1 cells; format: cell-based, human; conditions: 16 h, 3H-mevalonate
Method: FIG. 12. Increased free cholesterol synthesis in HSN cells. In order to investigate whether increased SRE-mediated gene transcription also results in increased cholesterol synthesis cells were incubated with radioactive mevalonate, a precursor which represents a committed step in cholesterol synthesis (see FIG. 11). Control and HSN1 cells were incubated for 7 h and 18 h in the presence of trace amounts of ^3H-mevalonate. Lipids were extracted and separated by thin […] chromatography (TLC). Radioactive counts in the cholesterol fraction were analyzed by liquid scintillation counting.
FIG. 14. Oleic acid increases HSN 4561 synthesis of high levels of free cholesterol but not cholesteryl ester. Cells were incubated for 4 h with ^3H-mevalonate and grown in the presence or absence of 0.3 mM oleic acid.
FIG. 16. Incubation with mevastatin decreases free cholesterol synthesis in HSN cells as well as in controls. Cells were treated for 16 h in the presence of ^3H-mevalonate to assess cholesterol de novo synthesis and several inhibitors of either cholesterol or ceramide synthesis (Mevastatin=Statin), C6 ceramide (previously shown by us to decreased SREBP levels and SRE-mediated gene transcription), cycloserine (inhibitor of serine-palmiltoyl transferase), cholesterol (classical inhibitor of de novo synthesis by negative feedback).

[6] = test system: Niemann Pick Disease Type A fibroblasts; experiment: Ceramide de novo synthesis (3H-serine) in NPA fibroblasts; format: cell-based; conditions: overnight incubation with agent, vs 1% BSA
Method: FIG. 19. Ceramide synthesis is increased in NPA fibroblasts. Fibroblasts from different control individuals and from two different cell lines derived from Niemann Pick Disease Type A were incubated for 4 h in the presence of ^3H-serine to measure de novo ceramide synthesis after having been incubated overnight in either control medium (1% BSA) or in the presence of cholesterol or C8-Ceramide. Lipid extraction and separation were carried out.

[7] = test system: SRE-mediated gene transcription; experiment: SRE-promoter luciferase reporter gene assay in LY-B cells (CHO cells mutated in LCB1 subunit of serine-palmitoyl transferase); format: cell-based, Chinese hamster; conditions: preliminary data
Method: as §1
Enzyme assays: Cells to be analyzed for luciferase activity were lyzed in lysis buffer A containing 0.1% Triton X-100, 50 mM Hepes, 10 mM MgSO4, pH 7.7. Cells were scraped, collected, vortexed and briefly centrifuged to pellet cell debris. An aliquot was used to measure luciferase activities in a luminometer (Berthold LB 9501, Wallac Inc., Gaithersburg, Md.) with a luciferin reagent from Promega (Madison, Wis.). Luciferase activity in relative light units (RLU) was divided by protein content (mg/ml) for each extract. […]

## CCCCCCCCCCCCCC(=O)N[C@H](C)[C@@H](O)c1ccccc1 [D-MAPP, (1S,2R)-D-erythro-2-(N-Myristoylamino)-1-phenyl-1-propanol]
[1]
  mRNA levels of HMG-CoA synthase: decrease

## CC(C)NCC(O)COc1cccc2ccccc12 (stereo not shown) [Propanolol]
[2]; 250 (unit uncertain), within 30 min
  SRE-mediated gene transcription inhibited to: 40% (+3%)

## CCCCCCCCCCCCCCCC(=O)NC(CN1CCOCC1)C(O)c1ccccc1.Cl (racemic) [PPMP, DL-threo-1-Phenyl-2-palmitoylamino-3-morpholino-1-propanol HCL]
[3]; 8 h
  SRE-mediated gene transcription (luciferase RLU/protein): significantly reduce

## N[C@@H]1CON=C1O [cycloserine]
[3]; 8 h
  SRE-mediated gene transcription (luciferase RLU/protein): significantly reduced

## AG10
[2]; 40 μg/ml, 5 h
  Reduction of SRE-mediated gene transcription(40 μg/ml): 52% (±11%)

## Oc1ccc(C=Cc2cc(O)cc(O)c2)cc1 [Resvaratrol, resveratrol]
[2]; 300 (unit uncertain), within 4 h
  SRE-mediated gene transcription inhibited to: 7% (±16%)

## D-erythro hexanoylsphingosine [C6-ceramide]
[4]
  cellular levels of pSREBP: increased
  levels of mSREBP: decreased
[5]
  sensitivity of cholesterol de novo synthesis in HSN1 cells (4561) relative to control cells: more sensitive

## CCCCCCCCCCCCC/C=C/[C@@H](O)[C@H](CO)NC(=O)CCCCCCC [C8-ceramide, D-erythro N-octanoylsphingosine]
[6]
  ceramide de novo synthesis (3H-serine, 4 h): significantly decreases

## CCCCCCCCCCCCC/C=C/[C@@H](O)[C@@H](N)CO [Sphingosine]
[3]; sphingosine 1.5 μM, 8 h
  increase of SRE-mediated gene transcription: up to two-fold

## ceramide
[3]; under the experimental conditions of FIG. 3, data not shown
  SRE-mediated gene transcription on addition of ceramide: did not increase
[7]
  SRE-mediated gene transcription in LYB-cells incubated with ceramide: did not decrease
[1]
  mRNA levels of HMG-CoA synthase: decrease

## CCCCN1C[C@H](O)[C@@H](O)[C@H](O)[C@H]1CO.Cl [NB-DNJ, N-Butyldeoxynojirimycin-HCL]
[3]; 8 h
  SRE-mediated gene transcription (luciferase RLU/protein): does not affect

## 1-methylthiodihydroceramide
[2]; 10 μM, 6 h
  SRE-mediated gene transcription reduced to: 40%
